Data from paper PMC4234510, “Plasmodium falciparum UvrD activities are downregulated by DNA-interacting compounds and its dsRNA inhibits malaria parasite growth” (BMC Biochemistry, 2014).
pIC50: −log10 of the molar value. Read-outs that look alike come from different tables or passages of the source. Starred links: 1 amine or outer side, 2 acyl side, 3 side chain; linkers in the order of their positions; H or OH if unused. Positions of bridges follow the written chain, without caps; N, C: chain ends. Non-standard residues stand in square brackets, D forms with d. Residues, ends and D or L forms follow the SMILES beside them. Chains are numbered I, II in the order given. Actinocin(9to1) = Cc1c2oc3c(C)ccc(C(=O)[*:1])c3nc-2c(C(=O)[*:2])c(N)c1=O; NMeV = CN[C@H](C(=O)O)C(C)C; Sar = CNCC(=O)O

Tests used:
PfUDN [1] = experiment: ssDNA-dependent ATPase assay of PfUDN; type: biochemical, Plasmodium falciparum; settings: for effect on ssDNA dependent ATPase activity of PfUDN: compound 20 μM, PfUDN 100 nM, reaction mixture (DNA) preincubated 15 min with compound, Figure 1A; for pIC50: inhibitor 0.2-5.0 μM (ciprofloxacin 0.5-30 μM), read-out: IC50, inhibition of ssDNA-dependent ATPase activity of PfUDN
Protocol: Standard protocol of ATPase assay was followed as described in the previous report. The hydrolysis of ATP catalyzed by PfUDN was assayed by measuring the formation of Pi from [γ-^32P] ATP. The reaction mixture of 10 μl contained [γ-^32P] ATP (specific activity 222 TBq.mmol^-1) and cold ATP (1 mM), ATPase buffer (20 mM Tris-HCl, pH 8.0, 8 mM DTT, 1.0 mM MgCl2, 20 mM KCl and 16 μg/ml BSA), purified PfUDN and 50 ng or 100 ng of M13 mp19 ssDNA. The reaction mixtures were incubated at 37°C for 60 min. This was followed by thin layer chromatography (TLC), and the quantitation was done using Alpha Imager-EP/Image-J software ( http://rsbweb.nih.gov/ij/). In order to study the effect of various compounds on ssDNA-dependent ATPase activity, different compounds were added into the reaction mixture prior to the addition of the PfUDN. In another set of experiment, PfUDN was pre-incubated (15 min) with these compounds in order to obtain the insight of inhibitory mechanism. All the experiments were performed at least two times and quantification data was used to calculate the standard deviation using Microsoft Excel 2010 and mean value was used to prepare the graph.

PfUDN [2] = experiment: DNA helicase (unwinding) assay of PfUDN; type: biochemical, Plasmodium falciparum; settings: for effect on DNA unwinding (helicase) activity of PfUDN: compound 20 μM, partial duplex substrate, Figure 3; for effect on helicase activity of PfUDN at lower concentration: upto 5 μM concentration tested (data not shown); for pIC50: inhibitor 0.5-5.0 μM, unit printed in text b27, not in table or picture labels, read-out: IC50, inhibition of helicase (DNA unwinding) activity of PfUDN
Protocol: The specially designed partial duplex substrate consisted of a ^32P-labelled 47-mer DNA oligodeoxynucleotide annealed to M13mp19 phage ssDNA. This oligodeoxynucleotide of the nucleotide sequence 5'- (T)15[…](T)15-3' contains 15 base-pairs of non-complementary region (T)15 at both the 5’ and 3’ ends. Oligodeoxynucleotide was labeled at 5′-end with T4 polynucleotide kinase (PNK) (5U) (New England Biolabs) and 1.85 MBq of [γ-^32P] ATP (specific activity 222 TBq/mmol) at 37°C for one hour and then annealed using standard annealing buffer (20 mM Tris-HCl, pH 7.5, 10 mM MgCl2, 100 mM NaCl, 1 mM DTT) with 0.5 μg of single-stranded circular M13mp19 (+) phage DNA by heating at 95°C for 1 min and then transferring immediately to 65°C for 2 min and then slow cooling to room temperature. Using gel filtration through a Sepharose 4B column (Pharmacia, Sweden) the non-hybridized oligodeoxynucleotide was removed. The reaction volume of 10 μl containing the ^32P-labeled helicase substrate (1000 cpm/10 μl) in appropriate buffer (20 mMTris-HCl, pH 8.0, 8 mM DTT, 1.0 mM MgCl2, 20 mMKCl and 16 μg/ml BSA) and PfUDN was incubated at 37°C for 60 min. The substrate and products were separated by electrophoresis on a nondenaturing 12% PAGE and the gel was exposed to hyper film for autoradiography or scanned on phosphoimager. In order to study the effect of DNA-interacting compounds on helicase activity, different compounds were added to the helicase reaction mixture prior to the addition of the PfUDN helicase. All the experiments were performed in duplicate and quantitation of both the substrate and unwound DNA bands was done using AlphaImager-EP/Image-J software ( http://rsbweb.nih.gov/ij/). Quantification data was used to calculate the standard deviation using Microsoft Excel 2010 and mean value was used to prepare the graph.

malaria parasite = settings: cited from earlier work
PfDH60 [3] = settings: Table 2; no unit and no reference given; read-out: inhibitory potential for helicase activity, PfDH60; cited from earlier work
PfH45 [4] = settings: Table 2; no unit and no reference given; read-out: inhibitory potential for helicase activity, PfH45; cited from earlier work
PfH45 [5] = settings: comparison column of Table 1; no unit and no reference given; read-out: inhibitory potential for ATPase activity, PfH45; cited from earlier work
PfD66/PfDDX19 [6] = settings: Table 2; no unit and no reference given; read-out: inhibitory potential for helicase activity, PfD66/PfDDX19; cited from earlier work
PfDH60 [7] = settings: comparison column of Table 1; no unit and no reference given; read-out: inhibitory potential for ATPase activity, PfDH60; cited from earlier work
PfD66/PfDDX19 [8] = settings: comparison column of Table 1; no unit and no reference given; read-out: inhibitory potential for ATPase activity, PfD66/PfDDX19; cited from earlier work
[9] = unit printed in text b20, not in table or picture labels

O=C(O)c1cn(C2CC2)c2cc(N3CCNCC3)c(F)cc2c1=O [Ciprofloxacin, ciprofloxacin]
effect on ssDNA dependent ATPase activity of PfUDN (PfUDN [1]): weakly inhibit
pIC50 (PfUDN [1]; unit printed in text b20, not in table or picture labels, listed as ciprofloxacin): ~5.00
pIC50 (PfUDN [1]; [9]): 5.00
effect on DNA unwinding (helicase) activity of PfUDN (PfUDN [2]): inhibit the DNA unwinding activity of PfUDN effectively
effect on helicase activity of PfUDN at lower concentration (PfUDN [2]): failed to show appreciable inhibition
inhibition of malaria parasite growth (malaria parasite): found effective

N=C(N)c1ccc(-c2cc3ccc(C(=N)N)cc3[nH]2)cc1 [DAPI]
effect on ssDNA dependent ATPase activity of PfUDN (PfUDN [1]): inhibit

COc1cccc2c1C(=O)c1c(O)c3c(c(O)c1C2=O)C[C@@](O)(C(C)=O)C[C@@H]3O[C@H]1C[C@H](N)[C@H](O)[C@H](C)O1 [Daunorubicin, daunorubicin]
pIC50 (PfDH60 [3]): 6.52
pIC50 (PfH45 [4]): 5.82
effect on ssDNA dependent ATPase activity of PfUDN (PfUDN [1]): top four inhibitors
pIC50 (PfUDN [1]): ~5.52
effect on DNA unwinding (helicase) activity of PfUDN (PfUDN [2]): inhibit the DNA unwinding activity of PfUDN effectively
pIC50 (PfUDN [2]; listed as daunorubicin): ~5.52
pIC50 (PfUDN [2]): 5.52
pIC50 (PfH45 [5]): 5.30

CC[n+]1c(-c2ccccc2)c2cc(N)ccc2c2ccc(N)cc21 [Ethidium bromide, ethidium bromide]
pIC50 (PfDH60 [3]): 5.82
pIC50 (PfH45 [4]): 6.00
pIC50 (PfD66/PfDDX19 [6]): 6.00
pIC50 (PfDH60 [7]): 5.60
pIC50 (PfD66/PfDDX19 [8]): 5.82
effect on ssDNA dependent ATPase activity of PfUDN (PfUDN [1]): top four inhibitors
effect on DNA unwinding (helicase) activity of PfUDN (PfUDN [2]): inhibit the DNA unwinding activity of PfUDN effectively
pIC50 (PfUDN [2]): 5.32
pIC50 (PfH45 [5]): 5.82

Cn1cc(NC(=O)c2cc(NC(=O)CN=C(N)N)cn2C)cc1C(=O)NCCC(=N)N [Netropsin, netropsin]
pIC50 (PfDH60 [3]): 5.92
pIC50 (PfH45 [4]): 6.30
pIC50 (PfD66/PfDDX19 [6]): 6.30
pIC50 (PfD66/PfDDX19 [8]): 6.00
effect on ssDNA dependent ATPase activity of PfUDN (PfUDN [1]): top four inhibitors
pIC50 (PfUDN [1]; [9]): 5.51
effect on DNA unwinding (helicase) activity of PfUDN (PfUDN [2]): inhibit the DNA unwinding activity of PfUDN effectively
pIC50 (PfUDN [2]): 5.33
pIC50 (PfH45 [5]): 5.82

COC(=O)[C@@H]1c2cc3c(c(O)c2[C@@H](O[C@@H]2O[C@@H](C)[C@H](OC)[C@@](C)(OC)[C@H]2OC)C[C@]1(C)O)C(=O)c1c(O)cc2c(c1C3=O)O[C@@H]1O[C@@]2(C)[C@H](O)[C@@H](N(C)C)[C@@H]1O [Nogalamycin, nogalamycin]
pIC50 (PfDH60 [3]): 5.70
pIC50 (PfH45 [4]): 6.30
pIC50 (PfD66/PfDDX19 [6]): 5.30
pIC50 (PfDH60 [7]): 6.30
effect on ssDNA dependent ATPase activity of PfUDN (PfUDN [1]): top four inhibitors
pIC50 (PfUDN [1]; [9]): 5.48
effect on DNA unwinding (helicase) activity of PfUDN (PfUDN [2]): inhibit the DNA unwinding activity of PfUDN effectively
pIC50 (PfUDN [2]): 5.46
pIC50 (PfH45 [5]): 6.10

Cc1c2oc3c(C)ccc(C(=O)N[C@@H]4C(=O)N[C@H](C(C)C)C(=O)N5CCC[C@H]5C(=O)N(C)CC(=O)N(C)[C@@H](C(C)C)C(=O)O[C@@H]4C)c3nc-2c(C(=O)N[C@@H]2C(=O)N[C@H](C(C)C)C(=O)N3CCC[C@H]3C(=O)N(C)CC(=O)N(C)[C@@H](C(C)C)C(=O)O[C@@H]2C)c(N)c1=O [actinomycin] (I: T[dV]P[Sar][NMeV] / II: T[dV]P[Sar][NMeV]; ester I:1-I:C, II:1-II:C; linker I:N-II:N via Actinocin(9to1))
effect on ssDNA dependent ATPase activity of PfUDN (PfUDN [1]): not able to considerably inhibit
effect on DNA unwinding (helicase) activity of PfUDN (PfUDN [2]): not able to considerably inhibit

CC[C@@]1(O)C(=O)OCc2c1cc1n(c2=O)Cc2cc3ccccc3nc2-1 [camptothecin]
effect on ssDNA dependent ATPase activity of PfUDN (PfUDN [1]): not able to considerably inhibit
effect on DNA unwinding (helicase) activity of PfUDN (PfUDN [2]): not able to considerably inhibit

N.N.[Cl][Pt][Cl] [cisplatin]
effect on ssDNA dependent ATPase activity of PfUDN (PfUDN [1]): not able to considerably inhibit
effect on DNA unwinding (helicase) activity of PfUDN (PfUDN [2]): not able to considerably inhibit

O=P1(N(CCCl)CCCl)NCCCO1 (centres unmarked) [cyclophosphamide]
effect on ssDNA dependent ATPase activity of PfUDN (PfUDN [1]): not able to considerably inhibit
effect on DNA unwinding (helicase) activity of PfUDN (PfUDN [2]): not able to considerably inhibit

COc1cc([C@@H]2c3cc4c(cc3[C@@H](O[C@@H]3O[C@@H]5CO[C@@H](C)O[C@H]5[C@H](O)[C@H]3O)[C@H]3COC(=O)[C@H]23)OCO4)cc(OC)c1O [etoposide]
effect on ssDNA dependent ATPase activity of PfUDN (PfUDN [1]): not able to considerably inhibit
effect on DNA unwinding (helicase) activity of PfUDN (PfUDN [2]): blocks the helicase activity appreciably
effect on helicase activity of PfUDN at lower concentration (PfUDN [2]): failed to show appreciable inhibition

O=c1c(-c2ccc(O)cc2)coc2cc(O)cc(O)c12 [genistein]
effect on ssDNA dependent ATPase activity of PfUDN (PfUDN [1]): not able to considerably inhibit
effect on DNA unwinding (helicase) activity of PfUDN (PfUDN [2]): not able to considerably inhibit

O=c1c(O)c(-c2ccc(O)cc2O)oc2cc(O)cc(O)c12 [morin]
effect on ssDNA dependent ATPase activity of PfUDN (PfUDN [1]): weakly inhibit
effect on DNA unwinding (helicase) activity of PfUDN (PfUDN [2]): not able to considerably inhibit

CO[C@@H]1[C@@H](OC(N)=O)[C@@H](O)[C@H](Oc2ccc3c(O)c(NC(=O)c4ccc(O)c(CC=C(C)C)c4)c(=O)oc3c2C)OC1(C)C [novobiocin]
effect on ssDNA dependent ATPase activity of PfUDN (PfUDN [1]): not able to considerably inhibit
effect on DNA unwinding (helicase) activity of PfUDN (PfUDN [2]): not able to considerably inhibit
